Molecules are shown by their SMILES. Where two headings read alike, the source gives them in different places.

Results on 24 molecules are retold here after patent US8664277B2, “Compounds and methods for PKCθ inhibition” (Complegen Partners, LLC, priority 2008, dated 2014).

Format in all cases: cell-based
One experiment deals with T1, Human PKC theta (Homo sapiens, UniProt Q04759).
T1 construct: expressed in transfected cells; host or cells: yeast (XenoGene strain)
Description: XenoGene yeast growth inhibition, yeast containing human PKC theta gene. The text has this: Using the XenoGene™ system described within, compounds inhibiting PKCθ are identified. The XenoGene™ system is a technology developed and patented by CompleGen wherein genes (“XenoGenes”™) from a target organism (e.g. humans) are used to functionally replace essential genes of a simple organism (yeast). These modified yeast are used to select compounds that act specifically on the protein encoded by the target gene and eliminate compounds that are not specific. […]

Another experiment concerns the target T2, PKC delta (Homo sapiens, UniProt Q05655).
T2 construct: expressed in transfected cells; host or cells: yeast (XenoGene strain)
The experiment can be described thus: XenoGene counter-screen, PKC delta. As to conditions: inverse of (PKC-theta IC50)/(PKC-X IC50). The procedure:
(§1) To identify compounds as being selective PKC theta inhibitors the IC50 values are determined against XenoGene™ strains containing other XenoGenes™, especially certain other PKC genes (see Example 10).
(§2) Human PKC theta gene (cDNA) was used to generate a XenoGene™ system as previously described (U.S. Pat. Nos. 6,998,261, 6,232,074), which was used to screen compounds in a chemical compound library. XenoGene™ systems used as counter-screens were constructed similarly using the gene for the appropriate counter-screen target. In particular, human genes (cDNA) encoding PKC delta, PKC eta and PKC epsilon were used to generate XenoGene™ systems.

For the next experiment, the target named is T3, PKC epsilon (Homo sapiens, UniProt Q02156).
T3 construct: expressed in transfected cells; host or cells: yeast (XenoGene strain)
T3 sequence (Q02156 1-737): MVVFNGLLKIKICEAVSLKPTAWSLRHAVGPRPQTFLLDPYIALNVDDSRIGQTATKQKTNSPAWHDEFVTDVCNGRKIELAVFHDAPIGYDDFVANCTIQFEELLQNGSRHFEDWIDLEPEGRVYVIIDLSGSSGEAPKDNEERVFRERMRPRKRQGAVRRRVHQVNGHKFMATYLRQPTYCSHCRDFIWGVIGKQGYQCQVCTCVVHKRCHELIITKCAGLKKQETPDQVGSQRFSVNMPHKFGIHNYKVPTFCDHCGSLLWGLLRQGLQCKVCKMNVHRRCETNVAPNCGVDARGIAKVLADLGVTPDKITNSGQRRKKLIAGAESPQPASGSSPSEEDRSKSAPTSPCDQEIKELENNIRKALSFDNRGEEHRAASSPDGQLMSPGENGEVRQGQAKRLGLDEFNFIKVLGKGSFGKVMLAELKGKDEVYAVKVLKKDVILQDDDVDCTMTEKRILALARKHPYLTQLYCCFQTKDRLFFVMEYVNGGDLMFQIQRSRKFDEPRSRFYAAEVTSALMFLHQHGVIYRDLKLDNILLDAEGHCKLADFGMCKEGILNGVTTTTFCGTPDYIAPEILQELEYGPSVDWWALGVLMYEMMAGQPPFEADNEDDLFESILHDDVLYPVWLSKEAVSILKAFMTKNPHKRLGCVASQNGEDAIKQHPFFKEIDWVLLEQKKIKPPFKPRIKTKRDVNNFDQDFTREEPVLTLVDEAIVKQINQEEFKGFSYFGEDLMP
Description: XenoGene counter-screen, PKC epsilon. As to conditions: inverse of (PKC-theta IC50)/(PKC-X IC50). Here is the method: as §1, §2

The next experiment addresses T4, PKC eta (Homo sapiens, UniProt P24723).
T4 construct: expressed in transfected cells; host or cells: yeast (XenoGene strain)
Description: XenoGene counter-screen, PKC eta. Conditions: inverse of (PKC-theta IC50)/(PKC-X IC50). The procedure: as §1, §2
(A counterscreen serves to expose hits that act by an unwanted route or on another target.)

The next experiment has as its target T5, yeast PKC1 (Saccharomyces cerevisiae, UniProt P24583).
T5 construct: endogenous in cells; host or cells: yeast control strain
T5 sequence (P24583 1-1151): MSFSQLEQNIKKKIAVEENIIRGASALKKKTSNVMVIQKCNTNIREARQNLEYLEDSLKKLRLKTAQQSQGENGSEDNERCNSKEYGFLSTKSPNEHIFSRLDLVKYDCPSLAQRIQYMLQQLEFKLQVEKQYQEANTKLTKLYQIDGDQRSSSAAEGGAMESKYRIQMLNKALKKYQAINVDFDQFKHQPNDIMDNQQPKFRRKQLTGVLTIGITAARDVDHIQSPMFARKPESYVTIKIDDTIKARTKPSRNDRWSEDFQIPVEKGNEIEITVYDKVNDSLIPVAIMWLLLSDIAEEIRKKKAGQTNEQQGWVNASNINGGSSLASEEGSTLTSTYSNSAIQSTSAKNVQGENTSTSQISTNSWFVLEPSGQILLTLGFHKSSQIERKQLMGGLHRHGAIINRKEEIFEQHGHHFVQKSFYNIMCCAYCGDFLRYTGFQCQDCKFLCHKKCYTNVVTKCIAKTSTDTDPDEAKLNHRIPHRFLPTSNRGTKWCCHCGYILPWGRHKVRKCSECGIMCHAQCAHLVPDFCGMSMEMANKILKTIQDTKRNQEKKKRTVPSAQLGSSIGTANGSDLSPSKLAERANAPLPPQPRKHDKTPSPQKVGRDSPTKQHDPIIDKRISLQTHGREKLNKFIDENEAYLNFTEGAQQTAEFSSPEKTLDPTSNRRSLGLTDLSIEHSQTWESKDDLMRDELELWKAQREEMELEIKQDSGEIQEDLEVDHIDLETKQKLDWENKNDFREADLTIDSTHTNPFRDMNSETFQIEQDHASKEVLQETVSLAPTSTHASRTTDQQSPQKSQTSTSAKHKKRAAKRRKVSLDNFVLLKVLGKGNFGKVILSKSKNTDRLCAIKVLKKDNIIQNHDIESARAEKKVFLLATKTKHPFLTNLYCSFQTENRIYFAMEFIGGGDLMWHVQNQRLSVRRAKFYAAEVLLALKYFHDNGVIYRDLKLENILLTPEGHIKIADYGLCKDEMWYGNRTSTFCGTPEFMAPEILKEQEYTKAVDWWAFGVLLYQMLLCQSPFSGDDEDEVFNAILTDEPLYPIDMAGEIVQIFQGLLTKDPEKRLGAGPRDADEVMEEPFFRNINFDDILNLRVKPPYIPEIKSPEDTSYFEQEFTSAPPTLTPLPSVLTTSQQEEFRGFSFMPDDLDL
Description: XenoGene counter-screen, yeast PKC1. Conditions: inverse of (PKC-theta IC50)/(PKC-X IC50).
Text: Using the XenoGene™ system described within, compounds inhibiting PKCθ are identified. The XenoGene™ system is a technology developed and patented by CompleGen wherein genes (“XenoGenes”™) from a target organism (e.g. humans) are used to functionally replace essential genes of a simple organism (yeast). These modified yeast are used to select compounds that act specifically on the protein encoded by the target gene and eliminate compounds that are not specific. XenoGene™ constructs provide a very high throughput screening system that allows identification of compounds active on the function of the target protein in a cell under physiological conditions on “first-pass” screening and further, to selectively counter-screen against 200 human targets or more if necessary. […] The relative potencies of the active compounds is determined by titration to find the concentration of compound providing 50% inhibition of growth (IC50) against the yeast containing the target gene (Table 1).
as §2

Setting [1] is: 50% inhibition of growth of yeast containing the target gene, read-out: IC50.
Where [2] appears, read: IC50, 50% inhibition of growth of yeast containing the target gene.
Setting [3] is: XenoGene system, read-out: PKC-theta IC50.

T1 sequence (Q04759 whole entry): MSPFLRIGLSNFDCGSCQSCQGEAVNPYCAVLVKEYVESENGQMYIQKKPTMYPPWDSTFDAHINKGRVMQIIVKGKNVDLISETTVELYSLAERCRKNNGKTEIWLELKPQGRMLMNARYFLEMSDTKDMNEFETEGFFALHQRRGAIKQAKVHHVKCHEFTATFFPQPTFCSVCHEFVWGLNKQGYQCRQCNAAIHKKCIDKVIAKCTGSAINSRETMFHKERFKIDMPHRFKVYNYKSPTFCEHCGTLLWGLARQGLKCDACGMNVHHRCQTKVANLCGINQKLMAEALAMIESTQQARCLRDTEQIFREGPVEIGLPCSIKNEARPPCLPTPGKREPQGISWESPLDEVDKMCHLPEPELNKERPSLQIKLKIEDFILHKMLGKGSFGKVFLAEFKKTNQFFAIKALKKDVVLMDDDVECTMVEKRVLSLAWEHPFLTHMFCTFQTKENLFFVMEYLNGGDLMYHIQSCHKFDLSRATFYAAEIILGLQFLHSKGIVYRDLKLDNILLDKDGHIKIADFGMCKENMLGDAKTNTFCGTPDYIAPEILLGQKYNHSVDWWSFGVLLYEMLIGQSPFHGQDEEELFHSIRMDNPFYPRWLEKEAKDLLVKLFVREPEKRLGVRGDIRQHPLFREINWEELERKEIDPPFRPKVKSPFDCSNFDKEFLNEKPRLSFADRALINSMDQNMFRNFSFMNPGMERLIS
T4 sequence (P24723 whole entry): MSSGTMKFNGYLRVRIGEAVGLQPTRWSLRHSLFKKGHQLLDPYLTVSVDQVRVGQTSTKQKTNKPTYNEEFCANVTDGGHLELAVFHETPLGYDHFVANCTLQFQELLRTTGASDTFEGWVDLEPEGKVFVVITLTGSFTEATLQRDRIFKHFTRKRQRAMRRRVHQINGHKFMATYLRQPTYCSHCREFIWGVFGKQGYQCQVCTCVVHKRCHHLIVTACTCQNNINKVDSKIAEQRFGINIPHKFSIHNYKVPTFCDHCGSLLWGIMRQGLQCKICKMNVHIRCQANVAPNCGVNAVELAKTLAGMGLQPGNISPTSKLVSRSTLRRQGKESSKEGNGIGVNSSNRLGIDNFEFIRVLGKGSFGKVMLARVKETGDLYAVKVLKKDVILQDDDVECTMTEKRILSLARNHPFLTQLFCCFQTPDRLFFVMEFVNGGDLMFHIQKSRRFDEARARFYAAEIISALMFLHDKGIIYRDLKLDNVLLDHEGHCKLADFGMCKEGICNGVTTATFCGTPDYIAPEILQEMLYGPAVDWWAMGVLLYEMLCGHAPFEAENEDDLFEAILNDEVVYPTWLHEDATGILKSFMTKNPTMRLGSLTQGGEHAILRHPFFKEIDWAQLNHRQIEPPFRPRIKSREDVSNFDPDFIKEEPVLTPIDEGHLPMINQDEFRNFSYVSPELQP
T2 sequence (Q05655 whole entry): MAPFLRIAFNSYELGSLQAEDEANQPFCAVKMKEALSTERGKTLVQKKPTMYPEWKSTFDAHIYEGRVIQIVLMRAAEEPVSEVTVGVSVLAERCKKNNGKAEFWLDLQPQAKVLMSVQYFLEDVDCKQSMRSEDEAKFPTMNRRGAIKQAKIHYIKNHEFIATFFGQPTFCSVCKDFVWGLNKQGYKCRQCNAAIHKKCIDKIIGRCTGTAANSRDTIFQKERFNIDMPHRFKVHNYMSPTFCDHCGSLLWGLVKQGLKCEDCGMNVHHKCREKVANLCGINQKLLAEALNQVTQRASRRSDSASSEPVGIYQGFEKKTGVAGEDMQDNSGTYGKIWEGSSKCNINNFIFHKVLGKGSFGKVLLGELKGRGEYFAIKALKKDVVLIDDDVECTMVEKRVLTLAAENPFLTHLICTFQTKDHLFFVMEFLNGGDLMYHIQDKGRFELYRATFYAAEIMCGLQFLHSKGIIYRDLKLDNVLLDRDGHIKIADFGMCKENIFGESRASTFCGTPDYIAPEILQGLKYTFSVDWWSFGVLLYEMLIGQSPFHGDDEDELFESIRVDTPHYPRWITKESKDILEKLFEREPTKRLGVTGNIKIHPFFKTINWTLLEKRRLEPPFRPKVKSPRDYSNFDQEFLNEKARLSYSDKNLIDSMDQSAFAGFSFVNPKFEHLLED

What is called IC50 is the concentration that gives 50% inhibition. On to `CC(C)(C)c1ccc(Oc2ccc(N)nc2)cc1` [Compound 486], for which the IC50 at Human PKC theta (setting [1]) is over 10000 nM. The same measure, in the same setting: under `Nc1ccc(Oc2ccc(OC(F)(F)F)cc2Cl)cc1` [Compound 498] stands under 1000 nM. `Nc1ccc(Oc2ccc(C(F)(F)F)cc2Cl)cc1` [Compound 499] had an IC50 against Human PKC theta (setting [2]) of under 1000 nM.

As to `Nc1ccc(Oc2ccccc2)cc1` [Compound 500], the IC50 at Human PKC theta (setting [1]) is over 10000 nM. In turn, `CC(=O)Nc1ccc(Oc2ccc(Cl)cc2Cl)cc1` [Compound 501] had an IC50 against Human PKC theta (setting [2]) of over 10000 nM. As for `Nc1ccc(Oc2cc(Cl)cc(Cl)c2)cc1` [Compound 504], on PKC delta, the “Selectivity for PKC-theta v. PKC-delta” value is 8.1. In addition, the “Selectivity for PKC-theta v. PKC-epsilon” value at PKC epsilon is 8.8. Moreover, the half-inhibitory concentration (IC50) on Human PKC theta (setting [1]) was 1000 to 10000 nM; on Human PKC theta (setting [3]), 1600 nM. Further, the “Selectivity for PKC-theta v. PKC-eta” value on PKC eta is 1.8. Consider `Cc1cc(Oc2ccc(N)cc2)ccc1Cl` [Compound 505], for which the “Selectivity for PKC-theta v. PKC-delta” value on PKC delta was determined as 13. At PKC epsilon, the “Selectivity for PKC-theta v. PKC-epsilon” value was 11. Moreover, the figures for the IC50 at Human PKC theta (setting [1]) and on Human PKC theta (setting [3]) were under 1000 nM and 400 nM, respectively. In addition, the “Selectivity for PKC-theta v. PKC-eta” value at PKC eta came out at 3.0.

On to `Nc1ccc(Oc2ccc(Cl)cc2Cl)cc1` [Compound 506, 4-(2,4-dichlorophenoxy)aniline], for which the “Selectivity for PKC-theta v. PKC-delta” value on PKC delta worked out at 1.9. At yeast PKC1, the “Selectivity for PKC-theta v. yeast PKC1” value stood at 9.4. Also, at PKC epsilon, the “Selectivity for PKC-theta v. PKC-epsilon” value is 2.5. The IC50 on Human PKC theta (setting [1]) was 1000 to 10000 nM; on Human PKC theta (setting [3]) it was 1600 nM. Further, on PKC eta, the “Selectivity for PKC-theta v. PKC-eta” value is reported as 0.63. As to `Cc1cc(Oc2ccc(N)cc2)ccc1Cl` [Compound 507], the IC50 on Human PKC theta (setting [1]) fell in the range of 1000 to 10000 nM.

Consider `Cc1ccc(Oc2ccc(N)cc2)cc1` [Compound 508], for which the IC50 at Human PKC theta (setting [1]) was in the range of 1000 to 10000 nM. Same read-out and setting: under `Nc1ccc(Oc2ccc(OC(F)(F)F)cc2)cc1` [Compound 510] stands under 1000 nM. Regarding `Nc1ccc(Oc2ccccc2C(=O)O)cc1` [Compound 553], the IC50 on Human PKC theta (setting [1]) was over 10000 nM. On the same count and under the same terms, then `CCC(C)(C)c1ccc(Oc2ccc(N)cc2)cc1` [Compound 730], with under 1000 nM; and `Nc1ccc(Oc2ccc(C(F)(F)F)cc2)cc1` [Compound 733], with 1000 to 10000 nM.

For `CC(C)(C)c1ccc(Sc2ccc(N)cc2)cc1` [Compound 740], the “Selectivity for PKC-theta v. PKC-delta” value at PKC delta was 26. For the same molecule, on yeast PKC1, the “Selectivity for PKC-theta v. yeast PKC1” value was 80. For the same molecule, the “Selectivity for PKC-theta v. PKC-epsilon” value on PKC epsilon stood at 12. The IC50 on Human PKC theta (setting [1]) was under 1000 nM; at Human PKC theta (setting [3]), 50 nM. Further, the “Selectivity for PKC-theta v. PKC-eta” value on PKC eta is given as 3.0.

Regarding `Nc1ccc(Sc2ccc(C(F)(F)F)cc2)cc1` [Compound 741], the “Selectivity for PKC-theta v. PKC-delta” value at PKC delta is recorded as 8.0. Also, at yeast PKC1, the “Selectivity for PKC-theta v. yeast PKC1” value turned out to be 32. Moreover, on PKC epsilon, the “Selectivity for PKC-theta v. PKC-epsilon” value is on record as 16. The IC50 is under 1000 nM at Human PKC theta (setting [1]) and 250 nM at Human PKC theta (setting [3]). Further, at PKC eta, the “Selectivity for PKC-theta v. PKC-eta” value is reported as 4.0. As for `CC(C)c1ccc(Oc2ccc(N)cc2)cc1` [Compound 742], the IC50 at Human PKC theta (setting [1]) is under 1000 nM. Regarding `CCCc1ccc(Oc2ccc(N)cc2)cc1` [Compound 745], on Human PKC theta (setting [1]), the IC50 is under 1000 nM.

With `Nc1ccc(Oc2ccc(C(F)(F)F)cc2Br)cc1` [Compound 747], at Human PKC theta (setting [1]), the IC50 was under 1000 nM. On the same count and under the same terms, then `CC(C)(C)c1ccc(S(=O)(=O)c2ccc(N)cc2)cc1` [Compound 749], with 1000 to 10000 nM; and `CC(C)(C)c1ccc(S(=O)(=O)c2ccc(N)cc2)cc1` [Compound 750], with over 10000 nM. Regarding `Nc1ccc([S+]([O-])c2ccc(C(F)(F)F)cc2)cc1` (centres unmarked) [Compound 751], at Human PKC theta (setting [1]), the IC50 was over 10000 nM. As to `Nc1ccc(S(=O)(=O)c2ccc(C(F)(F)F)cc2)cc1` [Compound 753], the half-maximal inhibitory concentration (IC50) at Human PKC theta (setting [1]) lay in the range of 1000 to 10000 nM. In the case of `Nc1ccc(Oc2ccc(C3CCCC3)cc2)cc1` [Compound 761], the IC50 at Human PKC theta (setting [1]) is under 1000 nM.
